Measurements taken from patent US8283344B2, “Method of treating inherited severe neutropenia” (Merck & Co., Inc., priority 2007, dated 2012).

Experiments:
[1] = target: T1, Human Polymorphonuclear Leukocyte Elastase (Homo sapiens, UniProt P08246); assay: Inhibition of human polymorphonuclear leukocyte elastase via hydrolysis of Boc-AAPAN or Boc-AAPVN; type: biochemical; conditions: second order rate constant for inactivation of the enzyme; crude human PMN extract, pH 7.5; to the nearest thousand; read-out: Kobs/[I]
T1 construct: Crude extract of human polymorphonuclear leukocytes (PMN) containing elastase activity; from tissue; host or cells: human polymorphonuclear leukocytes (crude extract)
T1 sequence (P08246 30-267): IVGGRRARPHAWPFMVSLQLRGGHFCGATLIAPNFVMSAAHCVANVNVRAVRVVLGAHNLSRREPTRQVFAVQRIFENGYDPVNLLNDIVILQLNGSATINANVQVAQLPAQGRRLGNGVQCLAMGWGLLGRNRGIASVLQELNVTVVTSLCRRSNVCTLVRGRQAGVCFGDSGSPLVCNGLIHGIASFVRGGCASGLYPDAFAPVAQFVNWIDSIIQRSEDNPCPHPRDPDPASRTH
Protocol: Enzyme Assays for the Inhibition of Human Polymorphonuclear Leukocyte Elastase Via Hydrolysis of N-t-Boc-alanyl-alanyl-prolylalanine-p-nitroanilide (Boc-AAPAN) or N-t-Boc-alanyl-[…] (Boc-AAPVN) Reagent: • 0.05M TES (N-tris[hydroxymethyl]methyl-2-mino-ethanesulfonic acid) Buffer, pH 7.5. 0.2 mM Boc-AAPAN or Boc-AAPVN.
To prepare substrate, the solid was first dissolved in 10.0 ml DMSO. Buffer at pH 7.5 was then added to a final volume of 100 ml.
Crude extract of human polymorphonuclear leukocytes (PMN) containing elastase activity.
Inhibitors (azetidinones) to be tested dissolved in DMSO just before use.
To 1.0 ml of 0.2 mM Boc-AAPAN in a cuvette, 0.01-0.1 ml of DMSO with or without inhibitor was added. After mixing, a measurement was taken at 410 mµ to detect any spontaneous hydrolysis due to presence of test compound. 0.05 Milliliters of PMN extract was then added and the ΔOD/min at 410 mµ was measured and recorded. Beckman model 35 spectrophotometer was used.
Results were expressed to the nearest thousand k obs/I which is the second order rate constant in per mole per second for inactivation of the enzyme.
The elastase activity in the crude PMN extract may vary from one preparation to another. A control of each new batch is run, and the volume added in the assay procedure is adjusted according to activity.

[2] = target: T2, neutrophil elastase (NE) (Homo sapiens, UniProt P08246, DEL174-181); assay: NE activity in cellular SCN model (tet-off HL-60 cells expressing del.145-152 mutant NE); type: cell-based; conditions: human promyelocytic tet-off HL-60 cells
T2 construct: The ratio of normal-to-mutant NE products is approximately 1:1; expressed in transfected cells; host or cells: human promyelocytic tet-off HL-60 cells
T2 sequence (P08246 with tags, fused parts or gaps DEL174-181): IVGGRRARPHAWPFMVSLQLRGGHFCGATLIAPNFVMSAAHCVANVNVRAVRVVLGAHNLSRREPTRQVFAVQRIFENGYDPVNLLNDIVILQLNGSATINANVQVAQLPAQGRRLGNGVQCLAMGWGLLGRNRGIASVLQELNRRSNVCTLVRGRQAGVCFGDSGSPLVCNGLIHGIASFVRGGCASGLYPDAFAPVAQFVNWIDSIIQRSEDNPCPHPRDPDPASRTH
T2 sequence (P08246 30-267): T1 sequence (P08246 30-267)
Text: (§1) We have established a model of SCN with doxycycline-regulated expression of del.145-152 mutant NE in human promyelocytic tet-off HL-60 cells. The ratio of normal-to-mutant NE products is approximately 1:1, which is expected in SCN patients with heterozygous mutation. […] The reduced cell growth and accelerated apoptosis were also observed in response to mutNE expression. Thus, this cellular model of SCN appears to closely recapitulate the human phenotype.

[3] = tested on: control cells expressing normal elastase; assay: Growth rate of control cells expressing normal elastase; type: cell-based, human; conditions: inhibition of NE activity
Text: as §1

[4] = tested on: HL-60 cells expressing the del.145-152 mutNE; assay: Cell growth and myeloid differentiation of HL-60 cells expressing del.145-152 mutNE; type: cell-based, human; conditions: HL-60 cells expressing del.145-152 mutNE treated with compound
Text: as §1

Row | kinact/KI [1] [M⁻¹ s⁻¹] | SMILES | other results
1 | 1.7e+06 | CCC[C@@H](NC(=O)C1C(=O)C(CC)(CC)[C@@H]1Oc1ccc(C(=O)N2CCN(C)CC2)cc1)c1ccc(C)cc1 (stereo partly shown) [Compound 242] | inhibition of the NE activity [2]: more than 80%; growth rate of control cells [3]: did not reduce the growth rate; cell growth [4]: complete restoration of cell growth; myeloid differentiation [4]: increased myeloid differentiation
2 | 1.77e+06 | CCC[C@@H](NC(=O)C1C(=O)C(CC)(CC)[C@@H]1Oc1ccc(C(=O)N2CCN(CCC)CC2)cc1)c1ccc(C)cc1 (stereo partly shown) [Compound 253] | 
3 | 1.1e+06 | CCC[C@@H](NC(=O)C1C(=O)C(CC)(CC)[C@@H]1Oc1ccc(C(=O)N2CCNCC2)cc1)c1ccc(C)cc1 (stereo partly shown) [Compound 247] | 
4 | 2.48e+06 | CCC[C@@H](NC(=O)C1C(=O)C(CC)(CC)[C@@H]1Oc1ccc(C(=O)N2CCN(CC(C)C)CC2)cc1)c1ccc(C)cc1 (stereo partly shown) [Compound 249] | 
5 | 5.17e+06 | CCC[C@@H](NC(=O)C1C(=O)C(CC)(CC)[C@@H]1Oc1ccc(C(=O)N2CCN(Cc3ccccc3)CC2)cc1)c1ccc(C)cc1 (stereo partly shown) [Compound 246] | 
6 | 7.49e+06 | CCC[C@@H](NC(=O)C1C(=O)C(CC)(CC)[C@@H]1Oc1ccc(C(=O)N2CCN(c3ccc(F)cc3)CC2)cc1)c1ccc(C)cc1 (stereo partly shown) [Compound 243] | 
7 | 2.39e+06 | CCC[C@@H](NC(=O)C1C(=O)C(CC)(CC)[C@@H]1Oc1ccc(C(=O)N2CCN(C(C)C)CC2)cc1)c1ccc(C)cc1 (stereo partly shown) [Compound 248] | 
8 | 3.59e+06 | CCC[C@@H](NC(=O)C1C(=O)C(CC)(CC)[C@@H]1Oc1ccc(C(=O)N2CCN(C3CC3)CC2)cc1)c1ccc(C)cc1 (stereo partly shown) [Compound 256] | 
9 | 5.28e+06 | CCC[C@@H](NC(=O)C1C(=O)C(CC)(CC)[C@@H]1Oc1ccc(C(=O)N2CCN(c3ccccc3)CC2)cc1)c1ccc(C)cc1 (stereo partly shown) [Compound 245] | 
10 | 2.32e+06 | CCC[C@@H](NC(=O)C1C(=O)C(CC)(CC)[C@@H]1Oc1ccc(C(=O)N2CCN(CC)CC2)cc1)c1ccc(C)cc1 (stereo partly shown) [Compound 252] | 
11 | 2.14e+06 | CCC[C@@H](NC(=O)C1C(=O)C(CC)(CC)[C@@H]1Oc1ccc(C(=O)N2CCN(c3ncccn3)CC2)cc1)c1ccc(C)cc1 (stereo partly shown) [Compound 254] | 
12 | 2.45e+06 | CCC[C@@H](NC(=O)C1C(=O)C(CC)(CC)[C@@H]1Oc1ccc(C(=O)N2CCN(c3cccc(Cl)c3)CC2)cc1)c1ccc(C)cc1 (stereo partly shown) [Compound 244] | 
